Columns and labels:
[1] = test system: LNCaP prostate cancer cells; settings: literature; cited from earlier work
TNF-α = assay: ELISA of TNF-α in PMA/LPS-treated THP-1 cells; assay type: cell-based, human; settings: THP-1, PMA then LPS 100 ng/ml 24 hours, 5 uM compound added 2 hours before LPS
Method: (§1) Human monocytes (THP-1, ATCC) were cultured in RPMI 1640 media supplemented with HEPES buffer (10 mM), sodium pyruvate (1 mM), glucose (4.5 g/L), fetal bovine serum (10%), penicillin (100 U/mL), streptomycin (100 μg/mL), and 2-mercaptoethanol (0.05 mM). THP-1 cells were treated with PMA (100 ng/ml) for 48 hours and then washed and rested for 24 hours in PMA-free media. These cells were treated with LPS (100 ng/ml) for 24 hours in the presence or absence of 5 uM of […] compounds (added 2 hours before LPS). Cell culture supernatants were collected and IL-1β (cat. No DLB50, R&D Systems), TNF-α (cat. no. DTA00D, R&D Systems) and IL-6 (cat. No D6050, R&D Systems) protein levels were evaluated by ELISA assay.

IL-6 = assay: ELISA of IL-6 in PMA/LPS-treated THP-1 cells; assay type: cell-based, human; settings: THP-1, PMA then LPS 100 ng/ml 24 hours, 5 uM compound added 2 hours before LPS
Method: as §1

IL-1β = assay: ELISA of IL-1β in PMA/LPS-treated THP-1 cells; assay type: cell-based, human; settings: THP-1, PMA then LPS 100 ng/ml 24 hours, 5 uM compound added 2 hours before LPS
Method: as §1

pAMPK (T172) = assay: ELISA of pAMPK (T172) in PANC-1 cells; assay type: cell-based, human; settings: rIGF1, 5 μM, 24 hours
Method: (§2) ELISA assay was used to evaluate the effect of GS compounds on protein activity levels in PANC-1 cancer cells. PANC-1 cells were serum-starved overnight and then treated with rIGF1 (100 ng/mL) for 24 hours, with or without GS27 (5 μM). The levels of the following proteins were evaluated by ELISA assay: a) p70 S6 (T389) (cat no. 54164C, Cell Signaling); b) pAKT (S473), (cat no. 80895, Cell Signaling); c) pACLY (S455), (cat no. okag1672, Avivasysbio); d) pAMPK (T172) (cat no. 7959C, Cell Signaling) and e) p65/NFKB (S536), (cat no. 7173, Cell Signaling).
(§3) PANC-1 is a human pancreatic ductal adenocarcinoma cell line derived from the carcinoma of a person.
(§4) The molecular mechanism of action of GS27, a compound that has exerted potent anti-cancer activity in different cancer cell lines including pancreatic cancer cells, was investigated. Oleacein has been implicated to have anti-inflammatory and metabolic effects, thus the potential effects of GS27 in different metabolic and inflammatory pathways were evaluated. Specifically, the protein levels of p70 S6 (T389), pAKT (S473), pACLY (S455), pAMPK (T172) and p65/NFKB (S536) were evaluated by ELISA assay in PANC-1 pancreatic cancer cells treated with 5 μM GS27. GS27 reduced p70 S6 and AKT phosphorylation levels, while it increased AMPK phosphorylation.

p70 S6 (T389) = assay: ELISA of p70 S6 (T389) in PANC-1 cells; assay type: cell-based, human; settings: rIGF1, 5 μM, 24 hours
Method: as §2, §3, §4

pAKT (S473) = assay: ELISA of pAKT (S473) in PANC-1 cells; assay type: cell-based, human; settings: rIGF1, 5 μM, 24 hours
Method: as §2, §3, §4

p65/NFKB (S536) = assay: ELISA of p65/NFKB (S536) in PANC-1 cells; assay type: cell-based, human; settings: rIGF1, 5 μM, 24 hours
Method: as §2, §3, §4

in vivo = settings: female, NOD SCID (NOD.CB17-Prkdc^scid/J), mouse, ip
Description: The guidelines of the NCI DTP (National Cancer Institute, Developmental Therapeutics Program, NIH, USA) for acute toxicity testing (DOI: 10.1021/acs.biomac.8b00959) were followed to determine Maximum Tolerated Dose (MTD) of GS27.
For the MTD studies, NOD.CB 17-Prkdc^scid/J mice (also known as NOD SCID mice) were used. All animals for in vivo experiments were kept under specific pathogen-free (SPF) conditions in Type II Long cages, at the experimental unit of our department (Department of Pharmacology, EL42-BIO_Exp03, protocol license 5542/22806-30/11/2015) in a climate-regulated environment (21±1° C.; 50-55% relative humidity) under a 12 h/12 h (lights on at 7:00 AM) light/dark cycle and allowed ad libitum food and water. Female and male mice, 6-8 weeks old, were used in the studies described here. GS27 compound was administered to 15 female mice at two different doses. GS at either 100 or 50 mg/kg was administered in a single dose via i.p. injection in pre-weighed mice. One group of five mice received the carrier and served as controls. […] Mice were also weighed twice weekly for two weeks.

PANC-1 cancer cells = assay: Cell Titer-Glo cell viability assay, PANC-1; assay type: cell-based, human; settings: 5 μM, 24 hours; compared with SB204990 and BMS303141
Description: The CellTiter-Glo® Luminescent Cell Viability Assay (Promega Corporation; Madison, WI) is a homogeneous method of determining the number of viable cells in culture based on quantitation of the ATP present, an indicator of metabolically active cells. The homogeneous assay procedure involves adding the single reagent (CellTiter-Glo® Reagent) directly to cells cultured in serum-supplemented medium. The homogeneous “add-mix-measure” format results in cell lysis and generation of a luminescent signal proportional to the amount of ATP present. The amount of ATP is directly proportional to the number of cells present in culture.
Cancer cells (3,000 cells/well) were harvested in a 96-well plate. Then, the cancer cells were treated with GS compounds and incubated for 24 hours. The MT Cell Viability Substrate, NanoLuc® Enzyme and cell culture medium was equilibrated to 37° C. The 2× RealTime-Glo™ reagent was prepared by diluting the MT Cell Viability Substrate and NanoLuc® Enzyme in 37° C. cell culture medium to a 2× concentration for each reagent. […] The cells were kept for ˜20 minutes in the cell culture incubator and then luminescence was measured by using a plate-reading luminometer. […]

Q: For C/C=C(/C=O)[C@@H](CC=O)CC(=O)OCCc1ccc(O)cc1 [GS19, (3S,4E)-4-formyl-3-(2-oxoethyl)-4-hexenoic acid 2-(4-hydroxyphenyl)ethyl ester, reference compound], which “concentration found to reduce LNCaP prostate cancer cell growth” value [1] is on record?
A: 500 µM

Q: For C/C=C(/C=O)[C@@H](CC=O)CC(=O)OCCOc1ccccc1 [GS24, (3S,4E)-4-formyl-3-(2-oxoethyl)-4-hexenoic acid 2-phenoxyethyl ester], which TNF-α protein levels (TNF-α) is on record?
A: reducing substantially

Q: What about the IL-6 protein levels (IL-6) of the same molecule?
A: effective for reducing

Q: And the IL-1β protein levels (IL-1β)?
A: more effectively reduced

Q: For C/C=C(/C=O)[C@@H](CC=O)CC(=O)SCCc1ccccc1 [GS27, S-phenethyl (3S,4E)-4-formyl-3-(2-oxoethyl)hex-4-enethioate], which AMPK phosphorylation (pAMPK (T172)) is on record?
A: increased

Q: And the “p70 S6 phosphorylation levels” value (p70 S6 (T389))?
A: reduced

Q: What about the AKT phosphorylation levels (pAKT (S473)) of the same molecule?
A: reduced

Q: What about the p65/NFKB activity (p65/NFKB (S536)) of the same molecule?
A: inhibiting

Q: And the MTD at 2 weeks (in vivo)?
A: > 200 mg/kg

Q: And the “dose well tolerated for two weeks” value (in vivo; 2 weeks)?
A: up to 100 mg/kg

Q: What about the “suppression of PANC-1 cancer cell growth” value (PANC-1 cancer cells) of the same molecule?
A: best effect
